# According to US8138191B2, “Inhibitor compounds and cancer treatment methods” (Critical Outcome Technologies Inc., priority 2007, dated 2012):
# Read-outs that look alike come from different tables or passages of the source.
# Columns and labels:
# A460 = assay: in vitro IC50 against cancer cell lines, A460; assay type: cell-based; conditions: Homo sapiens, 72 h; A460, NSCLC, 3 days
# Procedure: Briefly, cells were plated in plastic tissue culture plates and grown under standard conditions for each cell line, in carbon dioxide/oxygen atmosphere in plastic tissue culture plates, in the presence of COTI-2 or COTI-219 compounds at 35° C. for 3 days. Control cultures were treated with vehicle minus compound. Cells were counted after 3 days in culture and at a cell density of no more than 80%. The following cell lines, obtained from the National Cancer Institute, were tested: human SCLC cell lines DMS153, DMS114, SHP77; human NSCLC cell lines H226, A460, A560; human breast cancer cell lines T47D, MCF7; human colon cancer cell line HT29; and, human Leukemia cell lines K562, HL60.
# A549 = assay: in vitro IC50 against cancer cell lines, A549; assay type: cell-based; conditions: Homo sapiens, 72 h; A549, NSCLC, 3 days
# [1] = test system: PI3K activity in SHP77 cells; assay: PI3-K activity (PIP3 detection, Echelon kit), SHP77; assay type: cell-based, human; conditions: SHP77, 250 nM COTI-2 alone, 20 minutes
# Description: As a negative control, an equivalent volume of DMSO was utilized. […] To measure PI3-K activity, a commercial kit was purchased from Echelon. Following the procedures recommended by the manufacturer, membrane lipids were extracted in several steps and the resulting PIP3 was immobilized to nitrocellulose and measured by its interaction with a PH-domain containing protein and HRP-conjugated antibody supplied with the kit. As an additional control in these experiments, the specific PI3-K inhibitor, LY294002 was used to inhibit PI3-K and thus stop PIP3 production.
# [2] = A-B Permeability (TC7, pH 7.4/7.4) + verapamil; assay type: in vitro ADME; conditions: human, Caco-2, pH 7.4, with verapamil (concentration not stated), 1.0E−05 M
# P-glycoprotein = target: T1, P-glycoprotein (Homo sapiens, UniProt P08183); assay: P-glycoprotein inhibition (TC7, 3H-digoxin substrate); assay type: in vitro ADME
# T1 construct: endogenous in cells; host or cells: TC7 cells
# [3] = Metabolic Stability (liver microsomes, monkey, Cynomolgus); assay type: in vitro ADME; conditions: 1.0E−06 M, 60 min
# Procedure: (§1) Metabolic stability was determined in human (mixed gender and pool of 50) monkey (male Cynomolgus, pool of 6 or more), dog male, beagle, pool of 4 or more) and rat (male Sprague-Dawley, pool of 100 or more) liver microsomes. […] Four reference substrates (1 μM) were tested simultaneously with COTI-2. […] Peak areas corresponding to COTI-2 were recorded by HPLC-MS/MS. Metabolic stability, expressed as percent of COTI-2 remaining, was calculated by comparing the peak area of COTI-2 at 60 min to time zero.
# [4] = Metabolic Stability (liver microsomes, rat, Sprague-Dawley); assay type: in vitro ADME; conditions: 1.0E−06 M, 60 min
# Procedure: as §1
# CYP2D6 = CYP2D6 (Homo sapiens, UniProt P10635); assay: in vitro; assay type: in vitro ADME; conditions: both sexes
# Procedure: The final incubation volume was 200 μl. […] Peak areas corresponding to metabolite were recorded.
# [5] = In vivo pharmacokinetics in rats, IV dosing; conditions: IV
# Description: Pharmacokinetic studies in animal models provide valuable information that enables prediction of metabolism in humans. There are a large variety of animal models that allow for the pharmacokinetic evaluation of compounds by providing information on serum, plasma, and tissue levels. […] As a result, it is important to keep this phenomenon in mind during extrapolations from animal to human metabolism. An initial pharmacokinetic assessment of COTI-2, administered both intravenously and orally, in its parent formulation and as both an oxalate and tartrate salt were evaluated in rats.
# A single oral or IV dose of the COTI-2 free-base or the aforementioned salt forms was administered to groups of male and female rats and blood samples collected and processed at several time-points post-treatment.
# CYP1A = CYP1A (Homo sapiens, UniProt P05177); assay: in vitro; conditions: both
# CYP2C19 = CYP2C19 (Homo sapiens, UniProt P33261); assay: in vitro; conditions: both
# CYP3A = CYP3A (Homo sapiens, UniProt P08684); assay: in vitro; conditions: both
# CYP2E1 = CYP2E1 (Homo sapiens, UniProt P05181); assay: CYP2E1 Inhibition (HLM, chlorzoxanzone substrate)
# cleaved caspases 3 and 9 = assay: Cleaved caspase 3 and 9 by western blot after COTI-219; assay type: cell-based, human; conditions: 12 h incubation, dose-dependent increase
# Procedure: Cell viability assays were performed 24 to 48 h following incubation with COTI-219 by the trypan blue exclusion method using a Beckman-Coulter Vi-CELL XR 2.03 automated cell counter. Routine laboratory methods were employed for the production of cellular lysates, protein quantitation, SDS-PAGE and western blotting. All antibodies were obtained from Cell Signaling (Erk1/2 #4695, Ras #3965, CDK2 #2546, PKCalpha #2056, EGFR #2232, and ERBB2 #2165).
# In lung cancer, oncogenic Ras exerts anti-apoptotic effects, in part by up-regulating the multi-functional PKB/AKT kinase. Activated PKB/AKT phosphorylates and inhibits caspase 9 activation. In order to determine whether caspase 9 activation mediates COTI-219 apoptosis, cells were incubated for 12 h with vehicle or increasing concentrations of COTI-219 and the expression levels of cleaved caspases 3 and 9 were determined. There was a dose-dependent increase in the levels of both cleaved caspases, peaking at 0.5 μM of COTI-219. Beyond this concentration, activated caspase 9 was not detectable and there was a decline in cleaved caspase 3.
# DMS114 cells = assay: Cell cycle analysis of DMS114 cells by FACS; assay type: cell-based, human; conditions: DMS114, 1.5 μM, 24 h
# Procedure: Approximately 2×10^5 DMS114 cells were incubated for 24 h with the indicated concentrations of COTI-219. Following incubation with COTI-219 the cells were washed and re-suspended in 0.5 ml of BP Pharmingen Propidium Iodide staining solution (Cat. No. 556463) for FACS analysis in order to determine the changes in the cell cycle.
# Sequence of CYP2E1 (P05181 whole entry): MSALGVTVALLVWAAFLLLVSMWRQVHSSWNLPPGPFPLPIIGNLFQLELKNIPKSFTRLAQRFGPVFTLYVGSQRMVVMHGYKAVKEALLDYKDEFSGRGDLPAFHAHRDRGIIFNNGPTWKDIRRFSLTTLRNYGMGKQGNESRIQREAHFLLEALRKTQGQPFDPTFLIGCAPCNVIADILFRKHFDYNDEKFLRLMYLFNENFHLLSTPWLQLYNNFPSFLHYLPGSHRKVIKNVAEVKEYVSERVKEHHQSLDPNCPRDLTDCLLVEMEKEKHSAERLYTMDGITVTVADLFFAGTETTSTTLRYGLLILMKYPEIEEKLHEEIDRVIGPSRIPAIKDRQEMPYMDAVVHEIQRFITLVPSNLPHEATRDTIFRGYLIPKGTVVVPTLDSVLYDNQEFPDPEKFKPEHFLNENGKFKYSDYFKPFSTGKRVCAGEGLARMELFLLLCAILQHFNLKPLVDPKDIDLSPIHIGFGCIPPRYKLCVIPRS
# Sequence of CYP2C19 (P33261 whole entry): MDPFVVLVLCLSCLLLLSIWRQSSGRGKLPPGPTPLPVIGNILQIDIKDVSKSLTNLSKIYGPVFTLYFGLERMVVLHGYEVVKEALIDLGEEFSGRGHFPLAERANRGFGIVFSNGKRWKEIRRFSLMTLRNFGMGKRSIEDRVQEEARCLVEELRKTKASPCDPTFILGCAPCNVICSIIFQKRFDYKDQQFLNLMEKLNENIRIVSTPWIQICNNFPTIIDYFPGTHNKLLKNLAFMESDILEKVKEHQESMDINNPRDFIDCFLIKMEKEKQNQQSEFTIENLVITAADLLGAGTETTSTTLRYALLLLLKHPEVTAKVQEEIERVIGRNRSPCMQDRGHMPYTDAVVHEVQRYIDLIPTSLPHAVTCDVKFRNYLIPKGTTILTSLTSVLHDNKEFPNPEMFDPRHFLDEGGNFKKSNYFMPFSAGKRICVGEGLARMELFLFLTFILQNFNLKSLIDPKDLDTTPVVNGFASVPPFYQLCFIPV
# T1 sequence (P08183 whole entry): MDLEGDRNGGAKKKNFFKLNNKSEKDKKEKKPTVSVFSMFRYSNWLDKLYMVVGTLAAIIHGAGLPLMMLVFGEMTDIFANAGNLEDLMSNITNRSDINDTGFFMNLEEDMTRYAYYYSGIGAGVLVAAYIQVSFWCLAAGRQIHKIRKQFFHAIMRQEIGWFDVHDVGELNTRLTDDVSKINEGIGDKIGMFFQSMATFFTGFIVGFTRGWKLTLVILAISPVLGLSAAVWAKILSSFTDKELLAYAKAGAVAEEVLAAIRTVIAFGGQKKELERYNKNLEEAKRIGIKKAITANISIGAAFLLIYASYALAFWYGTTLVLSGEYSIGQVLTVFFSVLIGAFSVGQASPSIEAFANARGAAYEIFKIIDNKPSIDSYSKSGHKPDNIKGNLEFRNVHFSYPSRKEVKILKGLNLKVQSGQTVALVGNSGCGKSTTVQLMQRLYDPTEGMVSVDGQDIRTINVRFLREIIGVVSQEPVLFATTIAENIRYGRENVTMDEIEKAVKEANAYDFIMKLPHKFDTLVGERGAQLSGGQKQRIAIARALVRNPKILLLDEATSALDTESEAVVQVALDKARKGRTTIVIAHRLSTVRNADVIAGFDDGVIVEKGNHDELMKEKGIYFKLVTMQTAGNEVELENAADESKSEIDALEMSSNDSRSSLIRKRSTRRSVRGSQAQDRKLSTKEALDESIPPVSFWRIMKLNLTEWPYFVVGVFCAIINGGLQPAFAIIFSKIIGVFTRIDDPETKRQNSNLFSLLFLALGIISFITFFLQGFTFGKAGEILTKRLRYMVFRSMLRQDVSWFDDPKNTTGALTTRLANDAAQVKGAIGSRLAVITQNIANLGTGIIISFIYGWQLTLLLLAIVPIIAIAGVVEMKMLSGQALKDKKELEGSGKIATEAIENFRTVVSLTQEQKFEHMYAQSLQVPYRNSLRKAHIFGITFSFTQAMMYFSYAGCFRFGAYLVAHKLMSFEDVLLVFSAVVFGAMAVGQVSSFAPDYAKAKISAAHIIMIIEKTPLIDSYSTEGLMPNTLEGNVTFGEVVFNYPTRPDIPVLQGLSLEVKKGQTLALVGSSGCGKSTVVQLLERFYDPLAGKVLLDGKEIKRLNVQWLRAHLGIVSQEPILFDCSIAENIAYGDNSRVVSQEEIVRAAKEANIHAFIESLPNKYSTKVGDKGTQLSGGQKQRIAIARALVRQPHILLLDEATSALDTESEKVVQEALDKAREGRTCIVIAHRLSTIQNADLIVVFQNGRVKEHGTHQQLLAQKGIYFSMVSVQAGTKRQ
# Sequence of CYP3A (P08684 2-503): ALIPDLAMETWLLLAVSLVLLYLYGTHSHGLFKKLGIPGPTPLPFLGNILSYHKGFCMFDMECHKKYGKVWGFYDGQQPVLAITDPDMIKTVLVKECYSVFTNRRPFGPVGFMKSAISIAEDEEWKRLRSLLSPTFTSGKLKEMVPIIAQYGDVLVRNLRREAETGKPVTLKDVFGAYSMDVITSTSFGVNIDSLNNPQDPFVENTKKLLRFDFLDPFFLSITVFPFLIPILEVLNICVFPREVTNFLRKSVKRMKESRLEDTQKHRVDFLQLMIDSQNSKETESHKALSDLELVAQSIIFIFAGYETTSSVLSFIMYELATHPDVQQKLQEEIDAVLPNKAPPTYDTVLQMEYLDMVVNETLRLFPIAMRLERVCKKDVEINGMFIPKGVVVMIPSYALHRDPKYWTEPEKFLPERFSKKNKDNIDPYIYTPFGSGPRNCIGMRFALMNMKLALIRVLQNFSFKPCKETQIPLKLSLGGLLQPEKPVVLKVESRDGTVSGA
# Sequence of CYP1A (P05177 whole entry): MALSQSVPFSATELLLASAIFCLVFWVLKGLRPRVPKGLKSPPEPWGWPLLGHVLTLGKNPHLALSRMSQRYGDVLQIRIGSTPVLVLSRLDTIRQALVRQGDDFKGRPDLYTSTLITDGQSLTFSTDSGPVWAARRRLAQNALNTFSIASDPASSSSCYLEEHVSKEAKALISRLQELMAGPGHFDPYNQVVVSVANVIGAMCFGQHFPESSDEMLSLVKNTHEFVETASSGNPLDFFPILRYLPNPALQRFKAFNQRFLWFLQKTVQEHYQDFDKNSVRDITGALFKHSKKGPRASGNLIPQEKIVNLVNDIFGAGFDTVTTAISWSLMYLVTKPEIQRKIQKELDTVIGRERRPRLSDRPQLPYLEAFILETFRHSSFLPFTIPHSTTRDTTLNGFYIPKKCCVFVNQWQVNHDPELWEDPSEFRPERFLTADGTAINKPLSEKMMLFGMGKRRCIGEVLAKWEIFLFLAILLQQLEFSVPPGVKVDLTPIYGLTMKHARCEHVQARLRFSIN
# Sequence of CYP2D6 (P10635 whole entry): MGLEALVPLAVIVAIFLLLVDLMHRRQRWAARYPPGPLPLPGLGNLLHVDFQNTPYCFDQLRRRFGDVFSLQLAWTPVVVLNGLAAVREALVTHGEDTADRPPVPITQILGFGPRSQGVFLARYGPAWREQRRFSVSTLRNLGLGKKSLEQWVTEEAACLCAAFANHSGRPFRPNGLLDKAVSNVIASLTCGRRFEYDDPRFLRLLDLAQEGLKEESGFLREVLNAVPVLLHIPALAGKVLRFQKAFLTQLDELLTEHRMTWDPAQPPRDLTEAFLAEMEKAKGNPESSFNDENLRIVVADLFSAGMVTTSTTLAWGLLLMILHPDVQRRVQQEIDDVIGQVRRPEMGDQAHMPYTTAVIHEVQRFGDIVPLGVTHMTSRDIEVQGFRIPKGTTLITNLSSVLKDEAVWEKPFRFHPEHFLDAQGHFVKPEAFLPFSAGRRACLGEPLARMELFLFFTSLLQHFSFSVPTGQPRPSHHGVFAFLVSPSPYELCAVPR
smiles,measurement,setting,value
S=C(N/N=C1/CCCc2cccnc21)N1CCN(c2ccccn2)CC1 [COTI-2],IC50,A460,7.9 µM
same,IC50,A549,6.3 µM
same,PI3K activity (PIP3 levels),[1],did not inhibit PI3K activity
same,recovery at 10 µM,"[2]; 1st determination, read-out: Percent Recovery 1st",17%
same,recovery at 10 µM,"[2]; 2nd determination, read-out: Percent Recovery 2nd",13%
same,recovery at 10 µM,"[2]; mean, read-out: Percent Recovery Mean",15%
same,nH,"P-glycoprotein; P-glycoprotein Inhibition, TC7, 3H-digoxin substrate",0.5
same,IC50,"P-glycoprotein; TC-7, radiolabelled digoxin, read-out: IC50, Pgp inhibition",39 µM
same,Mean Parent Remaining,[3],2%
same,Mean Parent Remaining,[4],1%
same,"inhibition at 15 min, 10 µM","CYP2D6; human liver microsomes, pH 7.4, probe dextromethorphan (10 µM), CYP2D6, HLM, dextromethorphan substrate, 1.0E−05 M, read-out: % Inhibition of Control Values",2%
same,"inhibition at 15 min, 10 µM","CYP2D6; liver microsomes, pH 7.4, probe dextromethorphan, CYP2D6, 10 μM, read-out: percent inhibition",< 50%
same,"clearance (CL) from plasma, fold higher than the oxalate formulation",[5],approximately 1.4 fold
same,"clearance (CL) from plasma, fold higher than the tartrate formulation",[5],~2.3 fold
same,"inhibition at 15 min, 10 µM","CYP1A; human liver microsomes, pH 7.4, probe phenacetin (10 µM)",-2%
same,"inhibition at 15 min, 10 µM","CYP1A; liver microsomes, pH 7.4, probe phenacetin",< 50%
same,"inhibition at 15 min, 10 µM","CYP2C19; human liver microsomes, pH 7.4, probe omeprazole (10 µM)",4%
same,"inhibition at 15 min, 10 µM","CYP2C19; liver microsomes, pH 7.4, probe omeprazole",< 50%
same,"inhibition at 15 min, 10 µM","CYP3A; human liver microsomes, pH 7.4, probe midazolam (10 µM)",7%
same,"inhibition at 15 min, 10 µM","CYP3A; liver microsomes, pH 7.4, probe midazolam",< 50%
same,percent inhibition,"CYP2E1; CYP2E1, 10 μM",below 50%
same,% Inhibition of Control Values,"CYP2E1; CYP2E1, HLM, chlorzoxazone substrate, 1.0E−05 M",−2%
CN1CCN(C(=S)NN=C2c3ncccc3-c3cccnc32)CC1 [COTI-219],concentration at which levels of cleaved caspases 3 and 9 peak,cleaved caspases 3 and 9,0.5 µM
same,cell cycle effect,DMS114 cells,cell cycle arrest in G1
